Experimental data as given in PubChem BioAssay (NCI).
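Cells were grown in 96-well plates and exposed to each compound for 48 hours at five concentrations; endpoints were interpolated linearly between bracketing concentrations, or set to the highest concentration if not reached. TGI: total growth inhibition.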

Columns and labels:
Experiment in all cases: DTP human tumour cell line panel, 48 h
MOLT-4 leukemia = test system: MOLT-4 leukemia
UACC-257 melanoma = test system: UACC-257 melanoma
HCT-116 colon = test system: HCT-116 colon
TK-10 renal = test system: TK-10 renal
OVCAR-5 ovarian = test system: OVCAR-5 ovarian
PC-3 prostate = test system: PC-3 prostate
NCI-H522 lung = test system: NCI-H522 lung
SK-OV-3 ovarian = test system: SK-OV-3 ovarian
SF-268 CNS = test system: SF-268 CNS
OVCAR-3 ovarian = test system: OVCAR-3 ovarian
HOP-62 NSCLC = test system: HOP-62 NSCLC
BT-549 breast = test system: BT-549 breast
HCT-15 colon = test system: HCT-15 colon
OVCAR-8 ovarian = test system: OVCAR-8 ovarian
SK-MEL-2 melanoma = test system: SK-MEL-2 melanoma
SN12C renal = test system: SN12C renal
RXF 393 renal = test system: RXF 393 renal
SNB-75 CNS = test system: SNB-75 CNS
LOX IMVI melanoma = test system: LOX IMVI melanoma
SW-620 colon = test system: SW-620 colon
MDA-MB-231 breast = test system: MDA-MB-231 breast
ACHN renal = test system: ACHN renal
CAKI-1 renal = test system: CAKI-1 renal
DU-145 prostate = test system: DU-145 prostate
M14 melanoma = test system: M14 melanoma
NCI-H226 lung = test system: NCI-H226 lung
CCRF-CEM leukemia = test system: CCRF-CEM leukemia
OVCAR-4 ovarian = test system: OVCAR-4 ovarian
HL-60(TB) leukemia = test system: HL-60(TB) leukemia
A549 NSCLC = test system: A549 NSCLC
MDA-N = test system: MDA-N
COLO 205 colon = test system: COLO 205 colon
MCF7 breast = test system: MCF7 breast
SR leukemia = test system: SR leukemia
HS 578T breast = test system: HS 578T breast
K-562 leukemia = test system: K-562 leukemia
RPMI-8226 leukemia = test system: RPMI-8226 leukemia
786-0 renal = test system: 786-0 renal
HOP-92 NSCLC = test system: HOP-92 NSCLC
SF-539 CNS = test system: SF-539 CNS
SK-MEL-28 melanoma = test system: SK-MEL-28 melanoma
NCI-H460 lung = test system: NCI-H460 lung
UACC-62 melanoma = test system: UACC-62 melanoma
NCI-H23 lung = test system: NCI-H23 lung
MDA-MB-435 = test system: MDA-MB-435
A498 renal = test system: A498 renal
SF-295 CNS = test system: SF-295 CNS
IGROV1 ovarian = test system: IGROV1 ovarian
EKVX NSCLC = test system: EKVX NSCLC
SK-MEL-5 melanoma = test system: SK-MEL-5 melanoma
NCI/ADR-RES ovarian = test system: NCI/ADR-RES ovarian
MALME-3M melanoma = test system: MALME-3M melanoma
HT29 colon = test system: HT29 colon
U251 CNS = test system: U251 CNS
SNB-19 CNS = test system: SNB-19 CNS
T-47D breast = test system: T-47D breast
UO-31 renal = test system: UO-31 renal
KM12 colon = test system: KM12 colon
HCC-2998 colon = test system: HCC-2998 colon

Measured: TGI

Cc1ccc(S(=O)(=O)N2CCC(C(=O)O)(c3ccccc3)CC2)cc1
> 100 µM: MOLT-4 leukemia | UACC-257 melanoma | HCT-116 colon | TK-10 renal | OVCAR-5 ovarian | PC-3 prostate | NCI-H522 lung | SK-OV-3 ovarian | SF-268 CNS | OVCAR-3 ovarian | HOP-62 NSCLC | BT-549 breast | HCT-15 colon | OVCAR-8 ovarian | SK-MEL-2 melanoma | SN12C renal | RXF 393 renal | SNB-75 CNS | LOX IMVI melanoma | SW-620 colon | MDA-MB-231 breast | ACHN renal | CAKI-1 renal | DU-145 prostate | M14 melanoma | NCI-H226 lung | CCRF-CEM leukemia | OVCAR-4 ovarian | HL-60(TB) leukemia | A549 NSCLC | MDA-N | COLO 205 colon | MCF7 breast | SR leukemia | HS 578T breast | K-562 leukemia | RPMI-8226 leukemia | 786-0 renal | HOP-92 NSCLC | SF-539 CNS | SK-MEL-28 melanoma | NCI-H460 lung | UACC-62 melanoma | NCI-H23 lung | MDA-MB-435 | A498 renal | SF-295 CNS | IGROV1 ovarian | EKVX NSCLC | SK-MEL-5 melanoma | NCI/ADR-RES ovarian | MALME-3M melanoma | HT29 colon | U251 CNS | SNB-19 CNS | T-47D breast | UO-31 renal | KM12 colon

CCOC(=O)c1cc2c3c(cc(OC)c2[nH]1)N(C(=O)OCC)CC3
> 100 µM: MOLT-4 leukemia | UACC-257 melanoma | HCT-116 colon | OVCAR-5 ovarian | PC-3 prostate | SK-OV-3 ovarian | SF-268 CNS | OVCAR-3 ovarian | HOP-62 NSCLC | BT-549 breast | HCT-15 colon | OVCAR-8 ovarian | SK-MEL-2 melanoma | SN12C renal | RXF 393 renal | SNB-75 CNS | LOX IMVI melanoma | SW-620 colon | MDA-MB-231 breast | CAKI-1 renal | DU-145 prostate | M14 melanoma | NCI-H226 lung | CCRF-CEM leukemia | OVCAR-4 ovarian | HL-60(TB) leukemia | A549 NSCLC | MDA-N | COLO 205 colon | MCF7 breast | SR leukemia | HS 578T breast | K-562 leukemia | RPMI-8226 leukemia | 786-0 renal | HOP-92 NSCLC | SF-539 CNS | SK-MEL-28 melanoma | NCI-H460 lung | UACC-62 melanoma | NCI-H23 lung | MDA-MB-435 | A498 renal | HCC-2998 colon | SF-295 CNS | IGROV1 ovarian | EKVX NSCLC | SK-MEL-5 melanoma | NCI/ADR-RES ovarian | MALME-3M melanoma | HT29 colon | U251 CNS | SNB-19 CNS | T-47D breast | UO-31 renal | KM12 colon
